The supplement of paper PMC6411743

Compound: Nc1ncnc2c1ncn2[C@@H]1O[C@H](COP(=O)(O)OP(=O)(O)OP(=O)(O)O)[C@@H](O)[C@H]1O [adenosine triphosphate]
Assay: pEC50 of ATP-induced change in protein thermal stability (2D-TPP)
Description: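 2D thermal proteome profiling in mechanically disrupted Jurkat crude lysate. Lysate was treated 10 min at room temperature with Na-ATP (0, 0.005, 0.05, 0.5, 2 mM), heated to 12 temperatures (42-63.9 °C) for 3 min, and soluble protein was quantified by TMT10 LC-MS/MS. pEC50 is the median over replicates of dose-response fits at the lowest temperature showing a fold change of at least 1.5 (FDR-controlled hits).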

Chain of UniProt Q15717 (Q15717 whole entry): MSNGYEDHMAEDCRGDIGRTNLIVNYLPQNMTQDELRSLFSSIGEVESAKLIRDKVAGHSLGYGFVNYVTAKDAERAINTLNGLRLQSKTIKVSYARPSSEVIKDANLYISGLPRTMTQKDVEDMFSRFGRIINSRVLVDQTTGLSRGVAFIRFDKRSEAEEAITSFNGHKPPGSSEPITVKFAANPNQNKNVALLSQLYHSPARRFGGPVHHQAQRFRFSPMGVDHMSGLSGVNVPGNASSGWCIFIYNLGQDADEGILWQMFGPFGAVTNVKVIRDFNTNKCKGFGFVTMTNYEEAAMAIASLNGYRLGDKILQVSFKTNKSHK
Chain of UniProt Q99661 (Q99661 whole entry): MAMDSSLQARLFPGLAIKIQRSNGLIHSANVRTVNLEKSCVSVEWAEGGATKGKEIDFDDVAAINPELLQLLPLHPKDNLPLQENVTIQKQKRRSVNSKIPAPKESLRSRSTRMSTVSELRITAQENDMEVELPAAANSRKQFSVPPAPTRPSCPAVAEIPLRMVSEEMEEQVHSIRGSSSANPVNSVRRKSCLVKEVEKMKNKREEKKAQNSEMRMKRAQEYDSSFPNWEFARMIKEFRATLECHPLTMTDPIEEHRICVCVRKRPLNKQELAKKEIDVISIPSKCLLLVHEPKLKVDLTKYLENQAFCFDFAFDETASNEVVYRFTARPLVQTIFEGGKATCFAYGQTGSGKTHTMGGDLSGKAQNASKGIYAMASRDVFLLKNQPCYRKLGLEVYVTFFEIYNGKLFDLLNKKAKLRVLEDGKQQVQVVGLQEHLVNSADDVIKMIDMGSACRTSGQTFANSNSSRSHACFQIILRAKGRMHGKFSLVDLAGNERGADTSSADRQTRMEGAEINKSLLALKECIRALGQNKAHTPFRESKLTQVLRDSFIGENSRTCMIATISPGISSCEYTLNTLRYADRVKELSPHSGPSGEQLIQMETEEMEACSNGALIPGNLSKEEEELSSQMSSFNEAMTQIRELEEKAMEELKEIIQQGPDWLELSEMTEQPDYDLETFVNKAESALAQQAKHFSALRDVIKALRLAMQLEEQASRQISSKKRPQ
Chain of UniProt P14618 (P14618 whole entry, looked up): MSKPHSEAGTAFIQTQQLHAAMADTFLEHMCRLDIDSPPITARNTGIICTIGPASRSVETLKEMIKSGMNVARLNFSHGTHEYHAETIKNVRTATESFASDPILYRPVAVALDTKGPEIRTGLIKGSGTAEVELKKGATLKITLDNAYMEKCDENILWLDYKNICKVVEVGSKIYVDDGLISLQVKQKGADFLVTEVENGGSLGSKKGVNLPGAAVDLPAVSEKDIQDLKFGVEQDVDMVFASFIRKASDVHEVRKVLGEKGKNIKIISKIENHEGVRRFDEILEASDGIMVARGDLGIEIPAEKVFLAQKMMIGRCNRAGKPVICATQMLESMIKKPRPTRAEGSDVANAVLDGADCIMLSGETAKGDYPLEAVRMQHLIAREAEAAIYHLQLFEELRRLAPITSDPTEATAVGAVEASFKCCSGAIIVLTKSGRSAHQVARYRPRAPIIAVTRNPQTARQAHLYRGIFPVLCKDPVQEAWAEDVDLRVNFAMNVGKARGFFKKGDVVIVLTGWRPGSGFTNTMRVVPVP
Chain of UniProt P38919 (P38919 whole entry): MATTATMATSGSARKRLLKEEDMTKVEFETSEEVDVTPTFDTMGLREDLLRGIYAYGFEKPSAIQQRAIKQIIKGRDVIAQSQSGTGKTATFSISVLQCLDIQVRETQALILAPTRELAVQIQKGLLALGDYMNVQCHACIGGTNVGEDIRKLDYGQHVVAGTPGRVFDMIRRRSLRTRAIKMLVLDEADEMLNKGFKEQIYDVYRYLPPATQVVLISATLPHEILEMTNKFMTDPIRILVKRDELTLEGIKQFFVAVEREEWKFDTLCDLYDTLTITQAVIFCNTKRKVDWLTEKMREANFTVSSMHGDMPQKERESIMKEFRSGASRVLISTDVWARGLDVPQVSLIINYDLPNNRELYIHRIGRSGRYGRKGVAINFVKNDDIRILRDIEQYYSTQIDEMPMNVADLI
Chain of UniProt P38159 (P38159 whole entry): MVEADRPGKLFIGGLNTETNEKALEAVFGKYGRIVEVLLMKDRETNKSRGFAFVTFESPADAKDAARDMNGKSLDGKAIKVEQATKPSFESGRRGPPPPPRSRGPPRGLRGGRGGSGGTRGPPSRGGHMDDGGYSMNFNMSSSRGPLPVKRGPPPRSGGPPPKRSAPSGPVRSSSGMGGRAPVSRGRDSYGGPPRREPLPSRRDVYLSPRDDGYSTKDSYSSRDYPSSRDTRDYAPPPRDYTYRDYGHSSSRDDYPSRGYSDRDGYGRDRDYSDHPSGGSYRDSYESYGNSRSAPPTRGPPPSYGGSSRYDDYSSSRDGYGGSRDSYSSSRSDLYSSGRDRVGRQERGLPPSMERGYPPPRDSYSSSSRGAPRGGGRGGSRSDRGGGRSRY
Chain of UniProt Q9UHB7 (Q9UHB7 whole entry): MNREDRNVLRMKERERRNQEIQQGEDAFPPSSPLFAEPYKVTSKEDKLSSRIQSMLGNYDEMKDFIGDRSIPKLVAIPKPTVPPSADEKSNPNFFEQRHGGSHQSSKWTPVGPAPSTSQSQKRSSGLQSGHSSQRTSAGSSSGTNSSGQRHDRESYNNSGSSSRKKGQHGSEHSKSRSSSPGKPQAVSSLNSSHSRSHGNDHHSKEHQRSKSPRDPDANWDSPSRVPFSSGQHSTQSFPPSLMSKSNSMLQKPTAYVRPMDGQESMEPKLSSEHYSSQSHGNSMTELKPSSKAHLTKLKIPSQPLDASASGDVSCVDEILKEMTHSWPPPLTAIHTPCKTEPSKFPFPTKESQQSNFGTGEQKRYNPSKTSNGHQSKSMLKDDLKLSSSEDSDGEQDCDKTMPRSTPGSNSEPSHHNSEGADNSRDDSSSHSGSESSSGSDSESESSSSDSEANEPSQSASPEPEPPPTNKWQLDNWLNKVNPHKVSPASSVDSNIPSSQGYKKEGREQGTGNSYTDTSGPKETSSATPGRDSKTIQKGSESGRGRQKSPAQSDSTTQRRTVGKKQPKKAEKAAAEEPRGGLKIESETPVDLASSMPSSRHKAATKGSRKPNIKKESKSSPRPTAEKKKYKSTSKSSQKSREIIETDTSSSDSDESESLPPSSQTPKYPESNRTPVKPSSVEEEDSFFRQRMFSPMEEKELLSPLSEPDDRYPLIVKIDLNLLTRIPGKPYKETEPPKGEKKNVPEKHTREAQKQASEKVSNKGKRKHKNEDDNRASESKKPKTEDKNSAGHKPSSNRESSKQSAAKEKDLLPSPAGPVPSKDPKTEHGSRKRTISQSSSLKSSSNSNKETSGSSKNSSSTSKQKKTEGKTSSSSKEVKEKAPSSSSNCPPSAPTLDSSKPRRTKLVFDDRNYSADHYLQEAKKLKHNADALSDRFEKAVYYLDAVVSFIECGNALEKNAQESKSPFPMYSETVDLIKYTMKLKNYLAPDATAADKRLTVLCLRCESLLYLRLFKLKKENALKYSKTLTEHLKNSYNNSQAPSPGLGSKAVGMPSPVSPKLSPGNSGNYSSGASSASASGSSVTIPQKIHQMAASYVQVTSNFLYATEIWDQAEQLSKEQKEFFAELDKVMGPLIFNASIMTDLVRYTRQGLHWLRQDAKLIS
Chain of UniProt O14773 (O14773 whole entry): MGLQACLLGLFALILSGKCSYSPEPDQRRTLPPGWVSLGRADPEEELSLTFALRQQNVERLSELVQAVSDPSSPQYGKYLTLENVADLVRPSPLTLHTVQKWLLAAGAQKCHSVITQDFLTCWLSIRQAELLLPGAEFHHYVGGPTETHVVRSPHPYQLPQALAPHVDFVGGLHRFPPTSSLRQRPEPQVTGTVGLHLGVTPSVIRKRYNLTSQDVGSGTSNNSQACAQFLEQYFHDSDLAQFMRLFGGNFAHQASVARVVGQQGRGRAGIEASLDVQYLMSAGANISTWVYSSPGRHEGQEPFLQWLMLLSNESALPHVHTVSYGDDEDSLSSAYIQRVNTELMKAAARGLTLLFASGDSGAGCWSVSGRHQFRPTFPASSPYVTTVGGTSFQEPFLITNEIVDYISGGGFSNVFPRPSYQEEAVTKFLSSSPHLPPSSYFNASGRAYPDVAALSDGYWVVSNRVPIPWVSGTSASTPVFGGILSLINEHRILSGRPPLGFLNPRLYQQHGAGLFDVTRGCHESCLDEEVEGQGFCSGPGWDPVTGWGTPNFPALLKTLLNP
Chain of UniProt P48426 (P48426 whole entry): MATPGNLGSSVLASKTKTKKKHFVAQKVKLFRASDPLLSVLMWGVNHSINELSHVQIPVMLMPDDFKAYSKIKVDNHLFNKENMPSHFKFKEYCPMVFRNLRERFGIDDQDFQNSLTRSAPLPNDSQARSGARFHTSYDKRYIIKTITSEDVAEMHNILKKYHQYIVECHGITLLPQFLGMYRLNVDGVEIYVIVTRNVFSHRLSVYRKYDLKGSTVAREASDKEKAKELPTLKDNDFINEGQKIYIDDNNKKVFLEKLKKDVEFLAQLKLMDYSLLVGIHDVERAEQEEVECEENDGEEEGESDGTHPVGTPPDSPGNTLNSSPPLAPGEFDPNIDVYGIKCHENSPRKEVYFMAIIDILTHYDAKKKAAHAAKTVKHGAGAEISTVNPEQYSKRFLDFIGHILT
Chain of UniProt Q15843 (Q15843 whole entry): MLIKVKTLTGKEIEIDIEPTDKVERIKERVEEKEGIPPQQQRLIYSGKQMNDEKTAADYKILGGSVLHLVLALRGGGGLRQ
Chain of UniProt O60880 (O60880 whole entry): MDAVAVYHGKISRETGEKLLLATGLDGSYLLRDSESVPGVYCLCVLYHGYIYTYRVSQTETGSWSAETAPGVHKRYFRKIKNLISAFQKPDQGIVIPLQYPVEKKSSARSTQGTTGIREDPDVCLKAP
Chain of UniProt P61956 (P61956 whole entry): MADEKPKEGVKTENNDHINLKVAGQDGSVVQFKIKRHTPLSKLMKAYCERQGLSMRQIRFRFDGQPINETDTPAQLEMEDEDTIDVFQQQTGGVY

Q: Which pEC50 does the source give for “ELAVL1 (effect direction: stabilized) (UniProt Q15717)” here?
A: 3.02

Q: Which pEC50 does the source give for “KIF1B (effect direction: stabilized) (UniProt O60333)” here?
A: 3.68

Q: How did the pEC50 turn out when “PPA2 (effect direction: destabilized) (UniProt Q9H2U2)” was run?
A: < 2.7

Q: How did the pEC50 turn out when “UniProt Q9BXW7 (effect direction: destabilized)” was run?
A: 3.84

Q: “GPN1 (effect direction: destabilized) (UniProt Q9HCN4)” was tested. Which pEC50 did it give?
A: 2.83

Q: “FAM118A (effect direction: stabilized) (UniProt Q9NWS6)” was tested. Which pEC50 did it give?
A: 3.19

Q: How did the pEC50 turn out when “HMGN4 (effect direction: stabilized) (UniProt O00479)” was run?
A: 3.52

Q: With “POP1 (effect direction: destabilized) (UniProt Q99575)” as the target, how does the pEC50 read?
A: < 2.7

Q: How did the pEC50 turn out when “NCL (effect direction: stabilized) (UniProt P19338)” was run?
A: < 2.7

Q: Which pEC50 does the source give for “UniProt Q8N9R8 (effect direction: stabilized)” here?
A: 3.01

Q: How did the pEC50 turn out when “RSBN1L (effect direction: stabilized) (UniProt Q6PCB5)” was run?
A: 3.21

Q: Which pEC50 does the source give for “CHD1L (effect direction: stabilized) (UniProt Q86WJ1)” here?
A: 3.74

Q: “DDB2 (effect direction: stabilized) (UniProt Q92466)” was tested. Which pEC50 did it give?
A: 3.2

Q: “SND1 (effect direction: stabilized) (UniProt Q7KZF4)” was tested. Which pEC50 did it give?
A: 3.22

Q: “AK2 (effect direction: stabilized) (UniProt P54819)” was tested. Which pEC50 did it give?
A: 4.01

Q: For “DYNC1H1 (effect direction: stabilized) (UniProt Q14204)”, which pEC50 is on record?
A: 3.39

Q: How did the pEC50 turn out when “UGDH (effect direction: stabilized) (UniProt O60701)” was run?
A: 3.11

Q: With “RRP9 (effect direction: destabilized) (UniProt O43818)” as the target, how does the pEC50 read?
A: 2.98

Q: “CAMKK2 (effect direction: stabilized) (UniProt Q96RR4)” was tested. Which pEC50 did it give?
A: 3.63

Q: How did the pEC50 turn out when “CTBS (effect direction: stabilized) (UniProt Q01459)” was run?
A: 2.87

Q: “UniProt Q15257 (effect direction: stabilized)” was tested. Which pEC50 did it give?
A: < 2.7

Q: “CNOT10 (effect direction: stabilized) (UniProt Q9H9A5)” was tested. Which pEC50 did it give?
A: 3.17

Q: For “UniProt P61513 (effect direction: destabilized)”, which pEC50 is on record?
A: 3.27

Q: With “LRPPRC (effect direction: stabilized) (UniProt P42704)” as the target, how does the pEC50 read?
A: 3.65

Q: How did the pEC50 turn out when “ATIC (effect direction: stabilized) (UniProt P31939)” was run?
A: < 2.7

Q: Which pEC50 does the source give for “RBM26 (effect direction: stabilized) (UniProt Q5T8P6)” here?
A: 3.67

Q: Which pEC50 does the source give for “NAP1L4 (effect direction: stabilized) (UniProt Q99733)” here?
A: < 2.7

Q: With “RBMX (effect direction: destabilized) (UniProt P38159)” as the target, how does the pEC50 read?
A: < 2.7

Q: How did the pEC50 turn out when “KIF2C (effect direction: stabilized) (UniProt Q99661)” was run?
A: 4.18

Q: With “UniProt P62263 (effect direction: destabilized)” as the target, how does the pEC50 read?
A: 2.97

Q: How did the pEC50 turn out when “RASSF5 (effect direction: stabilized) (UniProt Q8WWW0)” was run?
A: 3.13

Q: For “SPTBN1 (effect direction: stabilized) (UniProt Q01082)”, which pEC50 is on record?
A: < 2.7

Q: How did the pEC50 turn out when “SNRPB (effect direction: destabilized) (UniProt P14678)” was run?
A: < 2.7

Q: With “ALKBH5 (effect direction: stabilized) (UniProt Q6P6C2)” as the target, how does the pEC50 read?
A: 3.65

Q: With “NMT1 (effect direction: stabilized) (UniProt P30419)” as the target, how does the pEC50 read?
A: 3.06

Q: Which pEC50 does the source give for “TPP1 (effect direction: stabilized) (UniProt O14773)” here?
A: 3.26

Q: With “UniProt Q9BSJ8 (effect direction: stabilized)” as the target, how does the pEC50 read?
A: 3.08

Q: Which pEC50 does the source give for “PSMD11 (effect direction: stabilized) (UniProt O00231)” here?
A: 4.08

Q: “SACM1L (effect direction: stabilized) (UniProt Q9NTJ5)” was tested. Which pEC50 did it give?
A: 3.14

Q: How did the pEC50 turn out when “UniProt Q86V81 (effect direction: destabilized)” was run?
A: 3.07

Q: For “PRKAR1B (effect direction: stabilized) (UniProt P31321)”, which pEC50 is on record?
A: 3.85

Q: “NFATC2 (effect direction: stabilized) (UniProt Q13469)” was tested. Which pEC50 did it give?
A: 3.21

Q: Which pEC50 does the source give for “PDCL3 (effect direction: destabilized) (UniProt Q9H2J4)” here?
A: 4.16

Q: Which pEC50 does the source give for “ABCB10 (effect direction: stabilized) (UniProt Q9NRK6)” here?
A: 4.06

Q: Which pEC50 does the source give for “TTC33 (effect direction: stabilized) (UniProt Q6PID6)” here?
A: 2.91

Q: For “PLK1 (effect direction: stabilized) (UniProt P53350)”, which pEC50 is on record?
A: 3.69

Q: For “AGPAT5 (effect direction: stabilized) (UniProt Q9NUQ2)”, which pEC50 is on record?
A: 3.89

Q: How did the pEC50 turn out when “FN3KRP (effect direction: stabilized) (UniProt Q9HA64)” was run?
A: 4.17

Q: With “UniProt P04350 (effect direction: stabilized)” as the target, how does the pEC50 read?
A: 3.07

Q: Which pEC50 does the source give for “G6PD (effect direction: stabilized) (UniProt P11413)” here?
A: < 2.7

Q: “CYB5R1 (effect direction: stabilized) (UniProt Q9UHQ9)” was tested. Which pEC50 did it give?
A: < 2.7

Q: Which pEC50 does the source give for “EIF5 (effect direction: stabilized) (UniProt P55010)” here?
A: < 2.7

Q: How did the pEC50 turn out when “AFF4 (effect direction: stabilized) (UniProt Q9UHB7)” was run?
A: 3.8

Q: “NEDD8 (effect direction: destabilized) (UniProt Q15843)” was tested. Which pEC50 did it give?
A: 3.02

Q: Which pEC50 does the source give for “EIF4A3 (effect direction: stabilized) (UniProt P38919)” here?
A: 3.68

Q: “PI4K2A (effect direction: stabilized) (UniProt Q9BTU6)” was tested. Which pEC50 did it give?
A: 3.54

Q: With “EML4 (effect direction: destabilized) (UniProt Q9HC35)” as the target, how does the pEC50 read?
A: 2.93

Q: Which pEC50 does the source give for “ACADM (effect direction: stabilized) (UniProt P11310)” here?
A: < 2.7

Q: With “PRKAR2A (effect direction: stabilized) (UniProt P13861)” as the target, how does the pEC50 read?
A: 4.03

Q: For “RPL10 (effect direction: destabilized) (UniProt P27635)”, which pEC50 is on record?
A: 3.88

Q: For “MDH2 (effect direction: stabilized) (UniProt P40926)”, which pEC50 is on record?
A: 2.78

Q: For “PSMD5 (effect direction: stabilized) (UniProt Q16401)”, which pEC50 is on record?
A: 3.99

Q: With “PEF1 (effect direction: destabilized) (UniProt Q9UBV8)” as the target, how does the pEC50 read?
A: 2.86

Q: With “CARS (effect direction: stabilized) (UniProt P49589)” as the target, how does the pEC50 read?
A: 3.63

Q: How did the pEC50 turn out when “RELA (effect direction: stabilized) (UniProt Q04206)” was run?
A: < 2.7

Q: How did the pEC50 turn out when “UniProt P14618 (effect direction: destabilized)” was run?
A: 2.87

Q: How did the pEC50 turn out when “HSPA9 (effect direction: stabilized) (UniProt P38646)” was run?
A: 3.94

Q: Which pEC50 does the source give for “Q5JWF2|P63092 (effect direction: stabilized) (UniProt P63092+Q5JWF2)” here?
A: < 2.7

Q: For “UniProt P62195 (effect direction: stabilized)”, which pEC50 is on record?
A: 4.18

Q: For “CS (effect direction: stabilized) (UniProt O75390)”, which pEC50 is on record?
A: < 2.7

Q: Which pEC50 does the source give for “ILKAP (effect direction: stabilized) (UniProt Q9H0C8)” here?
A: < 2.7

Q: Which pEC50 does the source give for “PIP4K2A (effect direction: stabilized) (UniProt P48426)” here?
A: 2.72

Q: With “CNOT1 (effect direction: stabilized) (UniProt A5YKK6)” as the target, how does the pEC50 read?
A: 3.41

Q: For “UniProt P61956 (effect direction: destabilized)”, which pEC50 is on record?
A: 3.07

Q: How did the pEC50 turn out when “ANKMY2 (effect direction: stabilized) (UniProt Q8IV38)” was run?
A: < 2.7

Q: “PGGT1B (effect direction: stabilized) (UniProt P53609)” was tested. Which pEC50 did it give?
A: 3.47

Q: “SFXN1 (effect direction: stabilized) (UniProt Q9H9B4)” was tested. Which pEC50 did it give?
A: 2.77

Q: For “ORC6 (effect direction: stabilized) (UniProt Q9Y5N6)”, which pEC50 is on record?
A: 3.73

Q: “DHX40 (effect direction: stabilized) (UniProt Q8IX18)” was tested. Which pEC50 did it give?
A: 3.44

Q: “SRFBP1 (effect direction: destabilized) (UniProt Q8NEF9)” was tested. Which pEC50 did it give?
A: 2.86

Q: “SH2D1A (effect direction: stabilized) (UniProt O60880)” was tested. Which pEC50 did it give?
A: < 2.7

Q: With “PEX6 (effect direction: stabilized) (UniProt Q13608)” as the target, how does the pEC50 read?
A: 4.03

Q: With “PPP1R7 (effect direction: stabilized) (UniProt Q15435)” as the target, how does the pEC50 read?
A: < 2.7

Q: With “CTBP1 (effect direction: stabilized) (UniProt Q13363)” as the target, how does the pEC50 read?
A: 2.87

Q: For “CAMK2G (effect direction: stabilized) (UniProt Q13555)”, which pEC50 is on record?
A: 3.4

Q: “UniProt P36507 (effect direction: stabilized)” was tested. Which pEC50 did it give?
A: 3.55

Q: “UniProt Q7L9L4 (effect direction: stabilized)” was tested. Which pEC50 did it give?
A: 2.98

Q: How did the pEC50 turn out when “NRF1 (effect direction: stabilized) (UniProt Q16656)” was run?
A: 2.97

Q: “ABCC1 (effect direction: stabilized) (UniProt P33527)” was tested. Which pEC50 did it give?
A: 3.46

Q: With “DUS3L (effect direction: stabilized) (UniProt Q96G46)” as the target, how does the pEC50 read?
A: 2.91

Q: For “MRTO4 (effect direction: destabilized) (UniProt Q9UKD2)”, which pEC50 is on record?
A: < 2.7

Q: Which pEC50 does the source give for “UniProt Q96BW9 (effect direction: stabilized)” here?
A: 3.16
